# Measured values: PubChem BioAssay AID1996
# Conditions: buffer; pH 7.4; 200.0 µM
row,solubility kinetic,SMILES
1,> 43.7 µg/mL,CC(=O)N[C@@H](Cc1ccc(OC(F)(F)F)cc1)C(=O)O
2,> 47 µg/mL,N#Cc1ccc(C(=O)N2CCN(C(=O)C3CCCO3)CC2)cc1 (stereo not given)
3,> 49 µg/mL,CCCN1CCN(S(=O)(=O)c2ccc3c(c2)OCCO3)CC1
4,38.2 µg/mL,O=C1CSCC(=O)N1Cc1ccc(Cl)cc1Cl
5,> 39.3 µg/mL,O=C(NNC(=O)c1cccnc1)NC1CCCCC1
6,31.1 µg/mL,C[C@@H]1NC(=O)N(c2ccc(F)cc2)C1=O
7,> 37.6 µg/mL,CCOC(=O)CCSc1n[nH]c(=S)s1
8,> 40.4 µg/mL,CNC(=O)Nc1ccccc1C(=O)Nc1ccccc1
9,> 49.9 µg/mL,COCC(C)n1c(C)cc(C(=O)COC(=O)c2cccn2C)c1C (stereo not given)
10,> 50.5 µg/mL,O=C(COC(=O)c1cccnc1Cl)NCCc1ccc(F)cc1
11,> 43 µg/mL,CC(C)CC(=O)Nc1cc2c3c(c1)C(C)C(=O)N3CCC2 (stereo not given)
12,40.3 µg/mL,Cc1ncc([N+](=O)[O-])n1S(=O)(=O)c1cc(Cl)ccc1Cl
13,> 46.1 µg/mL,Cn1c(SCc2ccc(C#N)cc2)nnc1-c1ccncc1
14,26.1 µg/mL,O=C(NC1CCS(=O)(=O)C1)c1cccnc1 (stereo not given)
15,> 48.8 µg/mL,CNC(=S)Nc1cccc(S(=O)(=O)NCc2ccco2)c1
16,46.2 µg/mL,O=C(NCCc1ccccc1)C1CCC(=O)N1CCc1ccccc1 (stereo not given)
17,24 µg/mL,Cc1noc(C)c1C(=O)OCC(=O)Nc1c(F)cccc1F
18,> 48.8 µg/mL,COc1ccc(C2=NC(C)(C)Cc3cc(OC)c(OC)cc32)cc1
19,> 40.7 µg/mL,O=C(Nc1ccc2c(c1)OCO2)c1ccc(CO)cc1
20,> 44.6 µg/mL,O=C(O)c1ccc(S(=O)(=O)NC2CCCCCC2)cc1
21,1 µg/mL,O=C(/C=C/c1cccc(F)c1)Nc1ccc(S(=O)(=O)N2CCOCC2)cc1
22,> 45.9 µg/mL,Cc1nn(C)c(C)c1NS(=O)(=O)c1ccc(Cl)s1
23,< 0.7 µg/mL,COC(=O)c1ccc(NC(=O)c2cc(Cl)ccc2OC)cc1
24,11.1 µg/mL,Cc1ccc(NC(=O)CN(C)C(=O)COc2ccccc2-c2ccccc2)cc1
25,18.9 µg/mL,CC1CN(C(=S)Nc2cccc(Cl)c2Cl)CC(C)O1 (stereo not given)
26,1.4 µg/mL,CN(C)c1ccc(C(=O)N=c2sccn2C)cc1[N+](=O)[O-]
27,> 43.7 µg/mL,Cc1ccc(C(=O)OCC(=O)NCc2ccc(F)cc2)o1

# Further lines, the compound ahead of its results:
row,SMILES,solubility kinetic
1,CCCCc1ccc(NC(=S)N2CCN(C)CC2)cc1,> 43.7 µg/mL
2,CCC(NC(=S)NCc1ccc(F)cc1)c1ccc(C)cc1 (stereo not given),0.8 µg/mL
3,Cc1nc2ccc(NC(=O)CCC3CCCC3)cc2s1,8.9 µg/mL
4,O=c1[nH]cc(S(=O)(=O)N2CCOCC2)c(=O)[nH]1,> 39.2 µg/mL
5,CCOc1ccc(NC(=S)N(CCc2ccncc2)C(C)C)cc1,48.8 µg/mL
6,COc1ccc(N(CC(=O)NC2CCCCC2)S(=O)(=O)c2cccs2)cc1,1.2 µg/mL
7,O=C(COC(=O)c1ccc2c(c1)OCO2)Nc1ccccc1Cl,3.5 µg/mL
8,O=C(COC(=O)c1ccccc1O)NC1CCCc2ccccc21 (stereo not given),4.6 µg/mL
9,S=C(Nc1nc2c(s1)CCCC2)NC1CC1,5.7 µg/mL
10,COc1cccc(C(=O)NC(C)c2cccc3ccccc23)c1OC (stereo not given),19 µg/mL
11,N#Cc1nc(-c2ccc([N+](=O)[O-])cc2)oc1N1CCCCC1,1.3 µg/mL
12,Cc1ccc(NC(CC(=O)c2ccccc2)C(=O)O)cc1Cl (stereo not given),10.2 µg/mL
13,CCOc1ccc(N2CC(C(=O)Nc3cc(S(=O)(=O)N4CCCCC4)ccc3C)CC2=O)cc1 (stereo not given),1.3 µg/mL
14,CS(=O)(=O)c1ccc(-c2csc(-c3cccnc3)n2)cc1,5.6 µg/mL
15,O=C(COC(=O)c1ccc2ccccc2c1O)Nc1ccccc1,2.3 µg/mL
16,Cc1cccc(NC(=O)Cn2cnc3c(oc4ccccc43)c2=O)c1,< 0.2 µg/mL
17,O=S(=O)(Nc1ccccc1Cl)c1ccc(-c2ccccn2)s1,35.8 µg/mL

row,SMILES,solubility kinetic
1,COc1ccc(S(=O)(=O)N2CN3CCN(C3)C2)cc1,> 42.5 µg/mL
2,Cn1c(SCC(=O)Nc2cccnc2Cl)nc2ccccc21,37.9 µg/mL
3,CCCCCC(O)(CCN1CCCCC1)c1ccc(OCC)cc1.Cl (stereo not given),53.5 µg/mL
4,CC1NCCC2(O)CCCCC12 (stereo not given),> 25.4 µg/mL
5,CCN1C(=O)C(=O)N(Cc2ccc(OC)c(F)c2)C1=O,40.4 µg/mL
6,CC(=O)Oc1ccc(C(=O)NCc2ccco2)cc1,37.6 µg/mL
7,O=C(CCCl)Nc1nc2c(s1)CCc1ccccc1-2,7.2 µg/mL
8,N/C(=N\OC(=O)c1ccc(Cl)cc1[N+](=O)[O-])c1cccnc1,12.5 µg/mL
9,CN1CCN(c2nc(-c3cccc([N+](=O)[O-])c3)nc3ccccc23)CC1,8.5 µg/mL
10,CN(C)S(=O)(=O)c1cccc(C(=O)c2nccn2C)c1,41.5 µg/mL
11,O=C(COc1cccnc1[N+](=O)[O-])Nc1ccc(F)cc1,11.5 µg/mL
12,Cc1ccc(NC(=O)C2CCCO2)c(Br)c1 (stereo not given),37.5 µg/mL
13,NCCNC(=O)c1c(NC(=O)c2ccccc2)sc2c1CCCC2,41.1 µg/mL
14,COc1ccc(C(=O)NC2CC3CCCC(C2)N3CC(C)C)cc1 (stereo not given),> 49.6 µg/mL
15,Cc1cc(C(=O)CN2C(=O)NC3(CCCCC3)C2=O)c(C)n1C,19 µg/mL
16,O=C(CN1C(=O)NC2(CCCCCC2)C1=O)c1cccs1,> 46 µg/mL
